Data taken from patent publication US20200179341A1, “METHODS AND COMPOSITIONS FOR TREATING MULTIPLE MYELOMA AND INCREASING ANTIBODY DEPENDENT CELL CYTOTOXICITY BY TARGETING THE ARYL HYDROCARBON RECEPTOR” (priority 2016, published 2020).

Key:
MM cells = assay: Surface expression (MFI) of MM antigens targetable by therapeutic monoclonal antibodies after AHR inhibition; format: cell-based
Description: AHR antagonism enhances MM expression of antigens targetable by therapeutic monoclonal antibodies. […] Accordingly, NK-cell mediated killing of MM tumor cells is tested by combining AHR antagonism of effector cells and MM targets with therapeutic monoclonal antibodies.

NK cell precursors [1] = assay: NK cell development and function from AHR-expressing innate lymphoid cell precursors; format: cell-based; conditions: compared to control and AHR agonist (FICZ) treated cells; FIG. 2
MM cell targets = assay: Antibody-mediated ADCC with AHR antagonism (cytotoxicity co-culture); format: cell-based
Description: A series of in vitro studies are conducted in which immune effector cells and/or MM cell targets are pre-treated with vehicle or CH233191 prior to cytotoxicity co-culture assay. Accounting for the baseline, direct effect of AHR antagonism on MM cell viability, any additive rate of target cell death in the combinatorial condition can be studied, in particular when both effectors and targets are pre-exposed to CH233191. Using validated techniques (Benson Blood 2010), the effects of CH233191 on immune effector cell expansion, expression of activating receptors, and abilities to traffic to, acquire, and lyse MM targets is studied. These experiments are conducted in the presence of therapeutic monoclonal antibodies in order to assess whether AHR antagonism may enhance ADCC-mediated immunotherapy (e.g., Elotuzumab, Daratumumab/Isatuximab/Rituximab/Milatuzumab).

MM tumor cell burden = assay: CH233191 by oral gavage in a disseminated murine MM model
NK cell precursors [2] = conditions: Roeven Blood 2014; cited from earlier work

SMILES: Cc1ccccc1N=Nc1ccc(NC(=O)c2ccnn2C)c(C)c1 [CH233191]
- MFI (CH233191), CD20 (MM cells; surface antigen CD20, antibody Rituximab, DMSO control MFI 321): 753
- MFI (CH233191), CD38 (MM cells; surface antigen CD38, antibodies Daratumumab, Isatuximab, DMSO control MFI 2959): 6110
- MFI (CH233191), CD74 (MM cells; surface antigen CD74, antibody Milatuzumab, DMSO control MFI 761): 1367
- MFI (CH233191), SLAMF7 (CS1) (MM cells; surface antigen SLAMF7 (CS1), antibody Elotuzumab, DMSO control MFI 1946): 2999
- acquisition of cytokine production and cytotoxicity capabilities (NK cell precursors [1]): rapid acquisition of cytokine production as well as cytotoxicity capabilities
- Elotuzumab-mediated ADCC (MM cell targets; FIG. 9, with Elotuzumab): appears to enhance
- Daratumumab-mediated ADCC (MM cell targets; FIG. 10, with Daratumumab): appears to enhance
- oral bioavailability (MM tumor cell burden; difficulties with solubilization in corn oil for gavage): questionable
- apparent reduction in MM tumor cell burden (MM tumor cell burden; oral gavage in corn oil, versus vehicle-treated controls): 2 of 5
- survival outcome (MM tumor cell burden; oral gavage, disseminated murine MM model): all mice died of progressive MM

SMILES: CC(C)n1cnc2c(NCCc3ccc(O)cc3)nc(-c3csc4ccccc34)nc21 [Stemreginin 1]
- acquisition of NK cell function (corroboration) (NK cell precursors [2]): corroborated this finding
